Consider 1 molecule from paper PMC4897788, “Design, biological evaluation and 3D QSAR studies of novel dioxin-containing pyrazoline derivatives with thiourea skeleton as selective HER-2 inhibitors” (Scientific Reports, 2016).

The nature of series [1]: Cytotoxicity test (MTT), NIH-3T3. The series is classed as cell-based. As to conditions: mouse, NIH-3T3 mouse embryonic fibroblast cells, NIH3T3. The protocol:
The cytotoxic activity in vitro was measured against mouse fibroblast NIH-3T3 cell using the MTT assay. Cells were cultured in a 96-well plate at a density of 5 × 10^5 cells and different concentrations of compounds were respectively added to each well. The incubation was permitted at 37 °C, 5% CO2 atmosphere for 24 h before the cytotoxicity assessments. 20 μL MTT reagent (4 mg/mL) was added per well 4 h before the end of the incubation. Four hours later, the plate was centrifuged at 1200 rcf for 5 min and the supernatants were removed, each well was added with 200 μL DMSO. The absorbance was measured at a wavelength of 490 nm (OD 490 nm) on an ELISA microplate reader. Three replicate wells were used for each concentration and each assay was measured three times, after which the average of IC50 was calculated. The cytotoxicity of each compound was expressed as the concentration of compound that reduced cell viability to 50% (IC50).

Series [2] has as its target T1, FAK (Homo sapiens, UniProt Q05397).
T1 construct: human-recombinant full-length FAK
Kind of series: FAK inhibitory assay (Kinase-Glo). The class given is biochemical. The protocol: Selected compounds were tested against FAK. In a typical study, human-recombinant full-length FAK was incubated in kinase buffer containing ATP and the substrate for 4 h at room temperature with or without the presence of the corresponding coumpounds. The final concentration of drug as 100, 30, 10, 3 μg/mL. The remaining ATP in solution was then quantified utilizing the Kinase-Glo-luminescence kit (Promega).

Series [3] has as its target HER-2 protein (truncated) (Homo sapiens, UniProt P04626). Kind of series: BLI assay (bio-layer interferometry). The class given is binding. The note with it: labeled compound, calculated by the Octet Red96 system. The method, then: Bio-layer interferometry (BLI). Binding of compounds (labeled; 0.01, 0.05, 0.1, 0.5 μM) to the HER-2 protein (truncated) was measured and analyzed on an Octet Red96 instrument (ForteBio) at room temperature. The buffer-equilibrated streptavidin biosensors were loaded with 100 μg/mL protein. A duplicate set of sensors was incubated in the buffer without protein for a background binding control. The assay was performed in black 96-well plates (Thermo Fisher Scientific) with the total working volume of 0.21 mL per well. The signal was analyzed using a double reference subtraction protocol to subtract the non-specific binding, background, and signal drift caused by sensor variability. The binding event was quantified by the shift of interference pattern of the light. The result was shown in Fig. 7 and the KD was calculated by the Octet Red96 instrument.

Series [4] concerns MDA-MB-453 human breast cancer cell line. Kind of series: Anti-proliferation assay (MTT), MDA-MB-453. The class given is cell-based. The note with it: 24 h.
For series [5], the system named is MCF-7 human breast cancer cell line. Kind of series: Anti-proliferation assay (MTT), MCF-7. The series is classed as cell-based. The note with it: MCF7, 24 h.
Series [6] concerns the target T2, VEGFR-2 (Homo sapiens, UniProt P35968).
T2 construct: either the phosphorylated or nonphosphorylated form of the VEGFR-2 kinase domain
Kind of series: VEGFR-2 inhibitory assay. The class given is biochemical. The method, then:
In a 96-well plate, 5 nM/L of either the phosphorylated or nonphosphorylated form of the VEGFR-2 kinase domain was incubated with selected compounds (10-point titration ranging from 4 μM to 0.1 μM), 1 μM/L gastrin substrate, 20 mM/L Tris-HCl, pH 7.5, 10 mM/L MgCl2, 100 mM/L NaCl, 1.5 mM/L EGTA, 1 mM/L DTT, 0.2 mM/L sodium orthovanadate, and 20 μg/mL BSA for 30 min at 25 °C. ATP was added at a final concentration of 11.8 μM and incubated for 60 min at room temperature. Eu-labeled antiphosphotyrosine pT66 antibody (Perkin- Elmer) was then used for detection. The fluorescence at 665 nM was measured with a Wallac Victor plate reader using a time delay of 50 μs. The experiment was performed for three independent times and in triplicate each time.

T2 sequence (P35968 834-1162 limits assumed, species assumed): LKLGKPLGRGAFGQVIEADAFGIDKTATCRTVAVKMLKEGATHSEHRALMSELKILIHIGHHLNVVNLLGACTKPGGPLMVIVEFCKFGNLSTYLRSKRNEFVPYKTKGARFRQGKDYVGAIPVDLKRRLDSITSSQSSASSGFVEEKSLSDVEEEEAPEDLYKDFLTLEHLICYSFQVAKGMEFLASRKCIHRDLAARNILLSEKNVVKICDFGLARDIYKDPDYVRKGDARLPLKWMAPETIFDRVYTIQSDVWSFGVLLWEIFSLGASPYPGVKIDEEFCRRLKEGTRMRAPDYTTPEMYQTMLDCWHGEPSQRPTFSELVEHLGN
T1 sequence (Q05397 whole entry): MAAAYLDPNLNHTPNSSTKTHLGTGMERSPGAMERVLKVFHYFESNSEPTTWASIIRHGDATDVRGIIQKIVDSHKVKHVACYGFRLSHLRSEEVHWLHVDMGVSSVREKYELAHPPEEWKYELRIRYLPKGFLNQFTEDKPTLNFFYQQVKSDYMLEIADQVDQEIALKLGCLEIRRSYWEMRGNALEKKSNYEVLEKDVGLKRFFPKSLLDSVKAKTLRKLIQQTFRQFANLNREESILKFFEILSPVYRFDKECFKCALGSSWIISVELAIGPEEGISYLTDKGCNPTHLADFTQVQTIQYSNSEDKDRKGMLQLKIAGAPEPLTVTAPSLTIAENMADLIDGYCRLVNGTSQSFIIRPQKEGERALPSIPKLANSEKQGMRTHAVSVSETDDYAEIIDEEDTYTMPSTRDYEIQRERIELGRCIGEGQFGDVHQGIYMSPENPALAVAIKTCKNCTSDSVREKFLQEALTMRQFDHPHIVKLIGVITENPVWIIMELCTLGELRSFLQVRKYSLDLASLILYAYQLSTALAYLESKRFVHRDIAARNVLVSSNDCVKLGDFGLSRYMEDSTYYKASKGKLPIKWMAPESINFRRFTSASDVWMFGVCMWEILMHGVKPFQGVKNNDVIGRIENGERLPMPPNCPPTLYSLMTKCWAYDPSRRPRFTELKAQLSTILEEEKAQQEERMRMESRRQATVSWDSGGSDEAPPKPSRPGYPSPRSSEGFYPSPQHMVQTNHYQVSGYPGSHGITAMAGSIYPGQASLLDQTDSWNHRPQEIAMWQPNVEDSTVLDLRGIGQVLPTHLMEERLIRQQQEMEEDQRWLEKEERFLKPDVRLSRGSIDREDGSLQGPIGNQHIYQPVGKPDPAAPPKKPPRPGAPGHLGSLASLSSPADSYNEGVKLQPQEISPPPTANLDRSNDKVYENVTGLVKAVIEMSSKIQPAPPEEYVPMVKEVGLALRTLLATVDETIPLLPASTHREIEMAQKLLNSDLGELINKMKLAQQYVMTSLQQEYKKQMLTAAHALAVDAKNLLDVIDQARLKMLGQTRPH
HER-2 protein (truncated), sequence (P04626 676-1245): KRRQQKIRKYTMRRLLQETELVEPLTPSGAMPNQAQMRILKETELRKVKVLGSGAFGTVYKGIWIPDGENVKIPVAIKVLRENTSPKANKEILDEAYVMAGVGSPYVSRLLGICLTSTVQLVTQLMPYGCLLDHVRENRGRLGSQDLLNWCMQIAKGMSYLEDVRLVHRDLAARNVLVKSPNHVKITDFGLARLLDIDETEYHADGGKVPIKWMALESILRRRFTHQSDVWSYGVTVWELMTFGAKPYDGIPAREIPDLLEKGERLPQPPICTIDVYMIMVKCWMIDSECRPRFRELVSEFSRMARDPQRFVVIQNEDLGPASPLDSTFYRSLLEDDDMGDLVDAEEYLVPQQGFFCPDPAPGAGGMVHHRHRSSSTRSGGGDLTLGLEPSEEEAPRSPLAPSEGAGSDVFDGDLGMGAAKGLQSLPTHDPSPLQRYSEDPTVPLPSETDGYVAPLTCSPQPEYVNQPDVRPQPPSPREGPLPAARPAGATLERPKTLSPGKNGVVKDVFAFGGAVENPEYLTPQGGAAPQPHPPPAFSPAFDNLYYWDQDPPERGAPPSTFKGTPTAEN

In series [1], `COc1ccc(C2CC(c3ccc4c(c3)OCCO4)=NN2C(N)=S)cc1OC` (stereo not drawn) [Compound C20, 3-(2,3-dihydrobenzo[b][1,4]dioxin-6-yl)-5-(3,4-dimethoxyphenyl)-4,5-dihydro-1H-pyrazole-1-carbothioamide] displayed a GI50 at 24 h of 274 ± 3.61 µM. Moreover, the IC50 in series [2] is 56.2 ± 5.48 µM; in series [6], 18.4 ± 1.74 µM. In series [3], the Kd was 0.187 µM. Besides, the GI50 is 0.15 ± 0.01 µM in series [4] and 11.9 ± 1.06 µM in series [5].
